Target: KsgA (Thermus thermophilus, UniProt Q5SM60)
Experiment: X-ray crystal structure
Details: cofactor-binding site; co-crystallised with 4 mM adenosine and 4 mM AdoMet, 50 °C for 10 min; crystal form KsgA2

Chain of KsgA (Q5SM60 whole entry): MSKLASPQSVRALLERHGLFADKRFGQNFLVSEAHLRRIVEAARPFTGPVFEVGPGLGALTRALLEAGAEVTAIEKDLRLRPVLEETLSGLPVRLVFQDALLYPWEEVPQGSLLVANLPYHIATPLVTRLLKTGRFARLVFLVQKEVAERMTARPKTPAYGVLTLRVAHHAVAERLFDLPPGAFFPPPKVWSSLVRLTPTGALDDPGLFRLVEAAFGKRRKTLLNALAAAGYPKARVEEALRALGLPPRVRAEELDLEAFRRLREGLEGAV

SMILES: Nc1ncnc2c1ncn2[C@@H]1O[C@H](CO)[C@@H](O)[C@H]1O [adenosine]
- X-ray crystal structure: these crystals were found to have adenosine in the cofactor-binding site
